According to patent US7491794B2, “Macrocyclic compounds as inhibitors of viral replication” (Intermune, Inc., priority 2003, dated 2009):
Like-named read-outs stand apart in the source and are kept apart here.

What was measured:
NS3-NS4A protease = molecular target: T1, NS3-NS4A protease (Hepatitis C virus genotype 1a, UniProt P27958); assay: NS3-NS4A protease assay (NS3 inhibition assay, RETS1 substrate), Section B; assay type: biochemical
T1 construct: Recombinant E. coli or Baculovirus full-length NS3 was diluted to 3.33 μM with assay buffer; made in house; host or cells: E. coli or baculovirus (BV) system
T1 sequence (P27958 1027-1657): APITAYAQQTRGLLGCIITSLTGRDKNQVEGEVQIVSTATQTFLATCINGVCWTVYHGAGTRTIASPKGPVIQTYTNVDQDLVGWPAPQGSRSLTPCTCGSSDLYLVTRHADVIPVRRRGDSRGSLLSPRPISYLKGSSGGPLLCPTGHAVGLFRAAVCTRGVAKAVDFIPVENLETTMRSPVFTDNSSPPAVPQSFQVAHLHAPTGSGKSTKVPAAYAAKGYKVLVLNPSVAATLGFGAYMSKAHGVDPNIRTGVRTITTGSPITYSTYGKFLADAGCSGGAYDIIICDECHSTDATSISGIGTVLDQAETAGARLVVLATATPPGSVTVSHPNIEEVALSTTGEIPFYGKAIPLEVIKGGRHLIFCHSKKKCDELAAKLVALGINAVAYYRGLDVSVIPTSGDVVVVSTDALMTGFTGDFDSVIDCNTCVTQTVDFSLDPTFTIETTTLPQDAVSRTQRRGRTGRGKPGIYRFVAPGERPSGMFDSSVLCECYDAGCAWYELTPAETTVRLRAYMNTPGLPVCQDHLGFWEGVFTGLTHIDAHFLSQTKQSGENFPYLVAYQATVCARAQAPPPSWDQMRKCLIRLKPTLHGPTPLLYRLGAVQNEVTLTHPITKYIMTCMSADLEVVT
In short: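 Full-length NS3 (E. coli or baculovirus) precomplexed with excess NS4A-2 peptide, run at 2 nM (E. coli) or 3 nM (BV) NS3; compounds pre-incubated 10 min at room temperature before RETS1 substrate. Fluorescence (ex 335/em 495 nm) read kinetically 30 min; IC50 from four-parameter fit, converted to Ki via Ki=IC50/(1+[S]/Km).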

[1] = tested on: HCV sub-genomic replicon, GS4.3; assay: Quantitation by ELISA of NPTII in the HCV sub-genomic replicon, GS4.3, Section B; assay type: cell-based; settings: Hepatitis C virus; GS4.3 cells, 72 h incubation; read-out: Replicon EC50
In short: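 GS4.3 cells (HuH-7 carrying HCV 1377/NS3-3′ replicon) were treated 72 h at 37 °C with inhibitors in 3-fold dilutions, 1% DMSO, no G418. Lysate NPTII was measured by ELISA (TMB, 450 nm). Signal as % of DMSO control; EC50 from 4-parameter fit.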

`CC(C)(C)OC(=O)N[C@H]1CCCCC/C=C\[C@@H]2C[C@@]2(C(=O)NS(=O)(=O)c2ccc(Cl)cc2)NC(=O)[C@@H]2C[C@@H](OC(=O)N3Cc4ccccc4C3)CN2C1=O` [AR00334250, (1S,4R,6S,14S,18R)-1,3-Dihydro-isoindole-2-carboxylic acid 14-tert-butoxycarbonylamino-4-(4-chloro-benzenesulfonylaminocarbonyl)-2,15-dioxo-3,16-diaza-tricyclo[14.3.0.0^4,6]nonadec-7-en-18-yl ester] was tested, and the IC50 (NS3-NS4A protease; read-out: NS3-NS4A IC50) was under 100 nM and the EC50 [1] was under 100 nM.

Compound `CC(C)(C)OC(=O)N[C@H]1CCCCC/C=C\[C@@H]2C[C@@]2(C(=O)NS(=O)(=O)C2CC2)NC(=O)[C@@H]2C[C@@H](OC(=O)N3Cc4ccc(N)cc4C3)CN2C1=O` [AR00334286, (1S,4R,6S,14S,18R)-5-Amino-1,3-dihydro-isoindole-2-carboxylic acid 14-tert-butoxycarbonylamino-4-cyclopropanesulfonylaminocarbonyl-2,15-dioxo-3,16-diaza-tricyclo[14.3.0.0^4,6]nonadec-7-en-18-yl ester] has an IC50 (NS3-NS4A protease; read-out: NS3-NS4A IC50) of under 100 nM and an EC50 [1] of under 100 nM.

For `COc1ccc2c(c1)CN(C(=O)O[C@@H]1C[C@H]3C(=O)N[C@]4(C(=O)NS(=O)(=O)C5CC5)C[C@H]4/C=C\CCCCC[C@H](NC(=O)OC(C)(C)C)C(=O)N3C1)C2` [AR00334314, (1S,4R,6S,14S,18R)-5-Methoxy-1,3-dihydro-isoindole-2-carboxylic acid 14-tert-butoxycarbonylamino-4-cyclopropanesulfonylaminocarbonyl-2,15-dioxo-3,16-diaza-tricyclo[14.3.0.0^4,6]nonadec-7-en-18-yl ester], the IC50 (NS3-NS4A protease; read-out: NS3-NS4A IC50) was under 100 nM and the EC50 [1] was under 100 nM.

In the case of `COCC1c2ccc(OC)cc2CCN1C(=O)O[C@@H]1CC2C(=O)N[C@]3(C(=O)NS(=O)(=O)C4CC4)C[C@H]3/C=C\CCCCC[C@H](NC(=O)OC(C)(C)C)C(=O)N2C1` (stereo partly drawn) [AR00334339, (1S,4R,6S,14S,18R)-6-Methoxy-1-methoxymethyl-3,4-dihydro-1H-isoquinoline-2-carboxylic acid 14-tert-butoxycarbonylamino-4-cyclopropanesulfonylaminocarbonyl-2,15-dioxo-3,16-diaza-tricyclo[14.3.0.0^4,6]nonadec-7-en-18-yl ester], the IC50 (NS3-NS4A protease; read-out: NS3-NS4A IC50) is reported as under 100 nM and the EC50 [1] is reported as under 100 nM.

`COc1ccc(S(=O)(=O)NC(=O)[C@@]23C[C@H]2/C=C\CCCCC[C@H](NC(=O)OC(C)(C)C)C(=O)N2C[C@H](OC(=O)N4Cc5ccccc5C4)C[C@H]2C(=O)N3)cc1` [AR00334341, (1S,4R,6S,14S,18R)-1,3-Dihydro-isoindole-2-carboxylic acid 14-tert-butoxycarbonylamino-4-(4-methoxy-benzenesulfonylaminocarbonyl)-2,15-dioxo-3,16-diaza-tricyclo[14.3.0.0^4,6]nonadec-7-en-18-yl ester] showed an IC50 (NS3-NS4A protease; read-out: NS3-NS4A IC50) of under 100 nM and an EC50 [1] of under 100 nM.

`CC(C)(C)OC(=O)N[C@H]1CCCCC/C=C\[C@@H]2C[C@@]2(C(=O)NS(=O)(=O)C2CC2)NC(=O)[C@@H]2C[C@@H](OC(=O)N3Cc4cccc(N)c4C3)CN2C1=O` [AR00334385, (1S,4R,6S,14S,18R)-4-Amino-1,3-dihydro-isoindole-2-carboxylic acid 14-tert-butoxycarbonylamino-4-cyclopropanesulfonylaminocarbonyl-2,15-dioxo-3,16-diaza-tricyclo[14.3.0.0^4,6]nonadec-7-en-18-yl ester] showed an IC50 (NS3-NS4A protease; read-out: NS3-NS4A IC50) of under 100 nM and an EC50 [1] of under 100 nM.

`CC(C)(C)OC(=O)N[C@H]1CCCCC/C=C\[C@@H]2C[C@@]2(C(=O)NS(=O)(=O)C2CC2)NC(=O)[C@@H]2C[C@@H](OC(=O)N3Cc4c(F)ccc(F)c4C3)CN2C1=O` [AR00334399, (1S,4R,6S,14S,18R)-4,7-Difluoro-1,3-dihydro-isoindole-2-carboxylic acid 14-tert-butoxycarbonylamino-4-cyclopropanesulfonylaminocarbonyl-2,15-dioxo-3,16-diaza-tricyclo[14.3.0.0^4,6]nonadec-7-en-18-yl ester] showed an IC50 (NS3-NS4A protease; read-out: NS3-NS4A IC50) of under 100 nM and an EC50 [1] of under 100 nM.

`CC(C)(C)NC(=O)N[C@H]1CCCCC/C=C\[C@@H]2C[C@@]2(C(=O)NS(=O)(=O)C2CC2)NC(=O)[C@@H]2C[C@@H](OC(=O)N3Cc4cccc(F)c4C3)CN2C1=O` [AR00338066, (1S,4R,6S,14S,18R)-4-Fluoro-1,3-dihydro-isoindole-2-carboxylic acid 14-(3-tert-butyl-ureido)-4-cyclopropanesulfonylaminocarbonyl-2,15-dioxo-3,16-diaza-tricyclo[14.3.0.0^4,6]nonadec-7-en-18-yl ester] gave an IC50 (NS3-NS4A protease; read-out: NS3-NS4A IC50) of under 100 nM and an EC50 [1] of under 100 nM.

In the case of `CC(C)(C)CC(=O)N[C@H]1CCCCC/C=C\[C@@H]2C[C@@]2(C(=O)NS(=O)(=O)C2CC2)NC(=O)[C@@H]2C[C@@H](OC(=O)N3Cc4cccc(F)c4C3)CN2C1=O` [AR00338070, (1S,4R,6S,14S,18R)-4-Fluoro-1,3-dihydro-isoindole-2-carboxylic acid 4-cyclopropanesulfonylaminocarbonyl-14-(3,3-dimethyl-butyrylamino)-2,15-dioxo-3,16-diaza-tricyclo[14.3.0.0^4,6]nonadec-7-en-18-yl ester], the IC50 (NS3-NS4A protease; read-out: NS3-NS4A IC50) is reported as under 100 nM and the EC50 [1] is reported as under 100 nM.

With `O=C(CCC(F)(F)F)N[C@H]1CCCCC/C=C\[C@@H]2C[C@@]2(C(=O)NS(=O)(=O)C2CC2)NC(=O)[C@@H]2C[C@@H](OC(=O)N3Cc4cccc(F)c4C3)CN2C1=O` [AR00338071, (1S,4R,6S,14S,18R)-4-Fluoro-1,3-dihydro-isoindole-2-carboxylic acid 4-cyclopropanesulfonylaminocarbonyl-2,15-dioxo-14-(4,4,4-trifluoro-butyrylamino)-3,16-diaza-tricyclo[14.3.0.0^4,6]nonadec-7-en-18-yl ester] the IC50 (NS3-NS4A protease; read-out: NS3-NS4A IC50) was under 100 nM and the EC50 [1] was under 100 nM.

In the case of `CC(=O)N[C@H](C(=O)N[C@H]1CCCCC/C=C\[C@@H]2C[C@@]2(C(=O)NS(=O)(=O)C2CC2)NC(=O)[C@@H]2C[C@@H](OC(=O)N3Cc4cccc(F)c4C3)CN2C1=O)C1CCCCC1` [AR00340122, (1S,4R,6S,14S,18R)-4-Fluoro-1,3-dihydro-isoindole-2-carboxylic acid 14-(2-acetylamino-2-cyclohexyl-acetylamino)-4-cyclopropanesulfonylaminocarbonyl-2,15-dioxo-3,16-diaza-tricyclo[14.3.0.0^4,6]nonadec-7-en-18-yl ester], the IC50 (NS3-NS4A protease) is reported as under 100 nM and the EC50 [1] is reported as under 1000 nM.

`COc1ccc(CC(=O)N[C@H]2CCCCC/C=C\[C@@H]3C[C@@]3(C(=O)NS(=O)(=O)C3CC3)NC(=O)[C@@H]3C[C@@H](OC(=O)N4Cc5cccc(F)c5C4)CN3C2=O)cc1` [AR00340156, (1S,4R,6S,14S,18R)-4-Fluoro-1,3-dihydro-isoindole-2-carboxylic acid 4-cyclopropanesulfonylaminocarbonyl-14-[2-(4-methoxy-phenyl)-acetylamino]-2,15-dioxo-3,16-diaza-tricyclo[14.3.0.0^4,6]nonadec-7-en-18-yl ester] was tested, and the IC50 (NS3-NS4A protease; read-out: NS3-NS4A IC50) was under 100 nM and the EC50 [1] was under 1000 nM.

Work on `CC(C)(C)OC(=O)N[C@H]1CCCCC/C=C\[C@@H]2C[C@@]2(C(=O)NS(=O)(=O)c2ccc(Cl)s2)NC(=O)[C@@H]2C[C@@H](OC(=O)N3Cc4ccc(Cl)cc4C3)CN2C1=O` [AR00340173, (1S,4R,6S,14S,18R)-5-Chloro-1,3-dihydro-isoindole-2-carboxylic acid 14-tert-butoxycarbonylamino-4-(5-chloro-thiophene-2-sulfonylaminocarbonyl)-2,15-dioxo-3,16-diaza-tricyclo[14.3.0.0^4,6]nonadec-7-en-18-yl ester] yielded an IC50 (NS3-NS4A protease; read-out: NS3-NS4A IC50) of under 100 nM and an EC50 [1] of under 10000 nM.
